Measurements: patent EP0214009A2, “Enaminones as potential prodrugs of primary and secondary amines” (priority 1985, dated 1987)
Read-outs that look alike come from different tables or passages of the source.

Legend:
[1] = Hydrolysis in the presence of rat liver homogenates; format: in vitro ADME
[2] = Hydrolysis in the presence of human plasma; format: in vitro ADME
[3] = Hydrolysis in the presence of rat intestinal homogenates; format: in vitro ADME
[4] = Hydrolysis in the presence of porcine liver esterase (half-lives, Michaelis-Menten parameters from Lineweaver Burk plots); format: in vitro ADME; conditions: pig; 60 × 10⁻⁴ units/ml porcine liver esterase, initial substrate concentration 16 µM, pH 7.4, 25°C; read-out: apparent half lives in the presence of porcine liver esterase
Porcine liver esterase = test: as above; format: in vitro ADME
[5] = Hydrolysis in the presence of rat plasma; format: in vitro ADME
[6] = Chemical hydrolysis in isotonic Sorensen phosphate buffer, followed spectrophotometrically; format: physicochemical; conditions: pH 7.4, 25°C, no enzyme, read-out: apparent half lives for chemical hydrolysis
carbonic anhydrase = test: Hydrolysis in the presence of carbonic anhydrase; format: in vitro ADME

## CCOC(=O)C1=C(Nc2ccccc2)CCCC1 [Example 2, Ethyl 2-(N-phenylamino)-l-cyclohexene-l-carboxylate]
[1]
  Catalysis of the hydrolysis: not observed
[2]
  Catalysis of the hydrolysis: not observed
[3]
  Catalysis of the hydrolysis: not observed
[4]
  half-life at 16 µM: 10 min
Porcine liver esterase; average over the three enzyme concentrations, read-out: Average Km
  Km: 7.2 mM
Porcine liver esterase; enzyme concentration 16.7 (Units/ml x 10^4)
  Vmax ± S.D.: 45.5 ± 3 mM/h
Porcine liver esterase; enzyme concentration 16.7 (Units/ml x 10^4), read-out: Km ± S.D.
  Km: 11.2 ± 0.1 mM
Porcine liver esterase; enzyme concentration 32.4 (Units/ml x 10^4)
  Vmax ± S.D.: 56.8 ± 8 mM/h
Porcine liver esterase; enzyme concentration 32.4 (Units/ml x 10^4), read-out: Km ± S.D.
  Km: 5.3 ± 0.2 mM
Porcine liver esterase; enzyme concentration 61.2 (Units/ml x 10^4)
  Vmax ± S.D.: 95.2 ± 10 mM/h
Porcine liver esterase; enzyme concentration 61.2 (Units/ml x 10^4), read-out: Km ± S.D.
  Km: 5.2 ± 0.2 mM
[5]
  Catalysis of the hydrolysis: not observed
[6]
  half-life: 18 min
Carbonic anhydrase
  Catalysis of the hydrolysis: not observed
